Data reported in patent US7029879B1, “Iodine uptake restoration in thyroid cancer” (University of Kentucky Research Foundation, priority 1999, dated 2006).

Key:
[1] = system: hNIS mRNA; test: hNIS mRNA re-expression by RT-PCR in treated human thyroid cell lines; format: cell-based; details: for hNIS mRNA expression despite treatment: MRO87, WRO82 and KAT-7 cell lines
Protocol: (§1) Cell lines, for evaluation of iodide-uptake and hNIS expression, were grown in phenol-red-free RPMI 1640 with 5% fetal bovine serum (FBS), 100 nM sodium selenite and 0.1 nM bovine TSH (basal medium) (20). They were plated at a density of 3–5×10^4 cells/9.4 cm^2, in triplicate in basal medium, and grown for 2–3 days at 37° C. in 5% CO2. They were treated with dimethylsulfoxide (DMSO, 25 μM daily for 3 days), sodium butyrate (0.5 or 1.0 mM), phenylacetate (pH 7.0, 5 or 10 mM) or 5-azacytidine (0.5 or 1.0 μM, in 25 μM DMSO, daily for 3 days) until control cells were 80% confluent (3–4 days), then changed to fresh basal medium and grown for an additional 24 hrs.
(§2) Total RNA and genomic DNA from: normal human thyroid, thyroid tumors, and cell lines (treated with agents described above), were isolated by the acid-guanidinium-phenol-chloroform method (21). All surgical samples were snap-frozen and stored at −80° C. until processed by homogenization in Trizol reagent (Life Technologies, Gaithersburg, Md.) while still frozen. Complementary DNA (cDNA) was synthesized from 1.0 μg of total RNA using MMLV reverse transcriptase (RT) with random-hexamer primers (Clontech, Palo Alto, Calif.). Each 50 μL polymerase chain reaction (PCR) vessel contained: 60 mM Tris HCl, pH 9.0, 15 mM ammonium sulfate, 3.5 mM MgCl2 (1.5 mM for hTTF-1), 250 μM dNTPs (Boehringer-Mannheim, Indianapolis, Ind.), 0.2 μM each primer pair, 1 U AmpliTaq DNA polymerase (Perkin-Elmer, Norwalk, Conn.), 0.2 μg TaqStart Antibody (Clontech) and 3% cDNA. β-actin amplification (primers, Stratagene, La Jolla, Calif.) confirmed cDNA integrity, purity, and template equivalence for semiquantification. PCR primers (upstream 5′ to 3′/downstream 5′ to 3′, in all cases) used for amplification were, for hNIS (5), CTGCCCCAGACCAGTACAT GCC (SEQ ID NO. 1)/[…] (SEQ ID NO. 2) (to amplify a coding region spanning four introns (4) yielding a 303 bp product from cDNA) and for Pax-8, […] (SEQ ID NO. 3)/[…] (SEQ ID NO. 4)((22) to amplify a 329 bp product). Amplification conditions for hNIS and Pax-8 were: denaturation (95° C.×5 min); 40 cycles of 20 sec at 95° C. and 60 sec at 68° C.; followed by extension at 72° C. for 3 min. The hTTF-1 product was amplified with intron spanning primers, […] (SEQ ID NO. 5)/[…] (SEQ ID NO. 6), which amplify a 263 bp fragment. The conditions were: 95° C. for 5 min; 45 cycles of 95° C. for 20 sec, 60° C. for 60 sec, and 72° C. for 30 sec; followed by extension at 72° C. for 3 min. The RT-PCR products were resolved on 2% agarose gels and visualized by ethidium bromide staining.

[2] = system: NPA'87 cells (papillary carcinoma); test: Iodide uptake assay (specific 125I uptake), NPA'87; format: cell-based, human; details: for Specific ^125I Uptake: NPA'87
Protocol: as §1
(§3) Cell lines, treated with differentiation agents and control cultures, were washed with 2 mL of buffer containing: 10 mM HEPES ([…]), 5.5 mM glucose, 5.4 mM KCl, 1.3 mM CaCl2, 0.4 mM Na2HPO4, 0.44 mM KH2PO4, and either 137 mM NaCl (Buffer A) or 100 mM choline chloride (Buffer B). After a 60 min incubation in the same buffer supplemented with Na(^125I) (1.0 μCi/2 mL) and 1.0 μM NaI, cells were washed once with Buffer A, lysed with 0.1 M NaOH and gamma counted (5). A parallel set of dishes, similarly plated and treated, were used for normalization of uptake activity, using 3-(4,5-dimethylthiazol-2-yl)-2,5-diphenyltetrazolium bromide (MTT) assay (25) as an index of cell viability. Gamma counts of cells incubated in Buffer B were subtracted from counts of cells incubated in Buffer A, under corresponding conditions, to account for non-specific binding of radioiodide.

[3] = system: TTF-1 mRNA; test: TTF-1 mRNA expression by RT-PCR in treated cell lines; format: cell-based, human; details: for induction of TTF-1 mRNA expression: KAT-5 and KAT-10 (basal TTF-1 undetectable)
Protocol: as §1, §2

[4] = system: KAT-5 cells (papillary carcinoma); test: Iodide uptake assay (specific 125I uptake), KAT-5; format: cell-based, human
Protocol: as §1, §3

[5] = KAK-1, high: AzaC 1.0 μM, NaB 1.0 mM, PhAc 10 mM
[6] = KAK-1, low: AzaC 0.5 μM, NaB 0.5 mM, PhAc 5.0 mM
[7] = KAT-5, high: AzaC 1.0 μM, NaB 1.0 mM, PhAc 10 mM
[8] = KAT-5, low: AzaC 0.5 μM, NaB 0.5 mM, PhAc 5.0 mM
[9] = KAT-10, low: AzaC 0.5 μM, NaB 0.5 mM, PhAc 5.0 mM
[10] = NPA'87, high: AzaC 1.0 μM, NaB 1.0 mM, PhAc 10 mM
[11] = NPA'87, low: AzaC 0.5 μM, NaB 0.5 mM, PhAc 5.0 mM
[12] = high: AzaC 1.0 μM, NaB 1.0 mM, PhAc 10 mM
[13] = low: AzaC 0.5 μM, NaB 0.5 mM, PhAc 5.0 mM
[14] = NPA'87, high: AzaC 1.0 μM, NaB 1.0 mM

Compound | hNIS mRNA [1, 5] | hNIS mRNA [1, 6] | hNIS mRNA [1, 7] | hNIS mRNA [1, 8] | hNIS mRNA [1, 9] | hNIS mRNA expression despite treatment [1] | hNIS mRNA [1, 10] | hNIS mRNA [1, 11] | Specific ^125I Uptake [2, 12] | Specific ^125I Uptake [2, 13] | induction of TTF-1 mRNA expression [3] | TTF-1 mRNA [3, 14] | Specific ^125I Uptake [4, 12] | Specific ^125I Uptake [4, 13] | further results
CCCC(=O)[O-].[Na+] [NaB, sodium butyrate] | − | − | − | − | − | failed to express hNIS mRNA | + | − | − | − | did not have such an effect in either of the cell lines | + | − | − | hNIS mRNA ([1]; KAT-10, high: NaB 1.0 mM, PhAc 10 mM): +; re-expression of hNIS mRNA ([1]; NPA'87 and KAT-10): re-expression of hNIS mRNA; iodide uptake activity ([2]; NPA'87 cells, 1.0 mM sodium butyrate): slightly increased; TTF-1 mRNA ([3]; KAT-10, high: NaB 1.0 mM): −
Nc1ncn([C@@H]2O[C@H](CO)[C@@H](O)[C@H]2O)c(=O)n1 [AzaC, 5-azacytidine] | + | + | + | − | + | failed to express hNIS mRNA | + | − | + | − | induced | + | − | − | re-expression of hNIS mRNA, comparison of the two concentrations ([1]; KAK-1 cells, 0.5 μM vs 1.0 μM 5-azacytidine): comparable; increased iodide uptake ([2]; NPA'87 cells, 1.0 M 5-azacytidine (so in the source)): over 15 fold; TTF-1 mRNA ([3]; KAK-1, high: AzaC 1.0 μM): +; TTF-1 mRNA ([3]; KAK-1, low: AzaC 0.5 μM): +; TTF-1 mRNA ([3]; KAT-5, high: AzaC 1.0 μM, PhAc 10 mM): +; TTF-1 mRNA ([3]; KAT-10, low: AzaC 0.5 μM): +
